Laboratory results reported in PubChem BioAssay AID192 (DTP/NCI, 2004).
Values joined by “and” are separate entries in the source; they are usually repeats but may differ in a detail not shown here. Equal entries are not always repeated. Toxic doses and inconclusive results are not listed.

System: BDF1 mice, B16 melanoma ip, median survival T/C
Assay: NCI In Vivo Anticancer Drug Screen. Data for tumor model B16 Melanoma (intraperitoneal) in B6D2F1 (BDF1) mice
Settings: endpoint: median survival time, higher = longer survival
Summary of the method: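 Each result divides a survival or tumor-size measurement in the compound-treated group by the same measurement in the vehicle group.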

[1] = dose: 50.0 mg/kg/injection, schedule: Q01DX009 (ip), vehicle: saline
[2] = dose: 25.0 mg/kg/injection, schedule: Q01DX009 (ip), vehicle: Klucel (hydroxypropylcellulose) (HPC)
[3] = dose: 50.0 mg/kg/injection, schedule: Q01DX009 (ip), vehicle: Klucel (hydroxypropylcellulose) (HPC)
[4] = dose: 100.0 mg/kg/injection, schedule: Q01DX009 (ip), vehicle: Klucel (hydroxypropylcellulose) (HPC)
[5] = dose: 200.0 mg/kg/injection, schedule: Q01DX009 (ip), vehicle: Klucel (hydroxypropylcellulose) (HPC)
[6] = dose: 50.0 mg/kg/injection, schedule: Q01DX009 (ip), vehicle: saline with Tween-80
[7] = dose: 100.0 mg/kg/injection, schedule: Q01DX009 (ip), vehicle: saline with Tween-80
[8] = dose: 200.0 mg/kg/injection, schedule: Q01DX009 (ip), vehicle: saline with Tween-80
[9] = dose: 400.0 mg/kg/injection, schedule: Q01DX009 (ip), vehicle: saline with Tween-80
[10] = dose: 12.5 mg/kg/injection, schedule: Q01DX009 (ip), vehicle: saline with Tween-80
[11] = dose: 25.0 mg/kg/injection, schedule: Q01DX009 (ip), vehicle: saline with Tween-80

For `COc1cc(NS(C)(=O)=O)ccc1Nc1c2ccccc2nc2c(C)cccc12`, the T/C (dose: 2.0 mg/kg/injection, schedule: Q01DX009 (ip), vehicle: saline) was 151 % of control, the T/C (dose: 2.5 mg/kg/injection, schedule: Q01DX009 (ip), vehicle: other) was 180 % of control and the T/C (dose: 4.0 mg/kg/injection, schedule: Q01DX009 (ip), vehicle: saline) was 213 % of control. The T/C (dose: 5.0 mg/kg/injection, schedule: Q01DX009 (ip), vehicle: other) was 190 % of control, the T/C (dose: 5.0 mg/kg/injection, schedule: Q01DX009 (ip), vehicle: saline with Tween-80) was 167 % of control and the T/C (dose: 10.0 mg/kg/injection, schedule: Q01DX001 (ip), vehicle: saline sonified) was 163 % of control. For the same compound, the T/C (dose: 12.5 mg/kg/injection, schedule: Q04DX003 (ip), vehicle: Klucel (hydroxypropylcellulose) (HPC)) was 160 % of control, the T/C (dose: 20.0 mg/kg/injection, schedule: Q01DX001 (ip), vehicle: saline sonified) was 166 % of control and the T/C (dose: 25.0 mg/kg/injection, schedule: Q04DX003 (ip), vehicle: Klucel (hydroxypropylcellulose) (HPC)) was 200 % of control. For the same compound, the T/C (dose: 60.0 mg/kg/injection, schedule: Q01DX001 (ip), vehicle: saline sonified) was 183 % of control.

`CC(=O)NSCC(NC(=O)OC(C)(C)C)C(=O)O` (configuration not stated) was tested, and the T/C [1] was 100 % of control, the T/C (dose: 100.0 mg/kg/injection, schedule: Q01DX009 (ip), vehicle: saline) was 101 % of control and the T/C (dose: 200.0 mg/kg/injection, schedule: Q01DX009 (ip), vehicle: saline) was 96 % of control.

In the case of `[Cl][Pt+2][Cl].[NH-]C1CCC1.[NH2-]`, the T/C (dose: 1.5 mg/kg/injection, schedule: Q01DX009 (ip), vehicle: saline) is reported as 176 % of control and the T/C (dose: 3.0 mg/kg/injection, schedule: Q01DX009 (ip), vehicle: saline) is reported as 162 % of control.

With `CC1OC(n2ccc(NC(=O)c3ccc(NC(=O)C(C)(N)CO)cc3)nc2=O)CC(O)C1OC1OC(C)C(N(C)C)C(O)C1O` (configuration not stated) the T/C (dose: 2.5 mg/kg/injection, schedule: Q01DX009 (ip), vehicle: Klucel (hydroxypropylcellulose) (HPC)) was 117 % of control, the T/C (dose: 5.0 mg/kg/injection, schedule: Q01DX009 (ip), vehicle: Klucel (hydroxypropylcellulose) (HPC)) was 102 % of control and the T/C (dose: 10.0 mg/kg/injection, schedule: Q01DX009 (ip), vehicle: Klucel (hydroxypropylcellulose) (HPC)) was 103 % of control.

`CCCCCCCCNc1cc2c3c(c1)CCCN3CCC2` was tested, and the T/C (dose: 0.75 mg/kg/injection, schedule: Q01DX009 (ip), vehicle: Klucel (hydroxypropylcellulose) (HPC)) was 88 % of control, the T/C (dose: 1.5 mg/kg/injection, schedule: Q01DX009 (ip), vehicle: Klucel (hydroxypropylcellulose) (HPC)) was 97 % of control and the T/C (dose: 6.0 mg/kg/injection, schedule: Q01DX009 (ip), vehicle: Klucel (hydroxypropylcellulose) (HPC)) was 90 % of control.

In the case of `O=[N+]([O-])c1cc([As](=O)(O)O)ccc1Cl`, the T/C [2] is reported as 100 % of control, the T/C [3] is reported as 96 % of control and the T/C [4] is reported as 96 % of control.

With `CCOC(OCC)C(=O)NNC(C)C` the T/C (dose: 6.25 mg/kg/injection, schedule: Q01DX009 (ip), vehicle: saline) was 105 % of control, the T/C (dose: 12.5 mg/kg/injection, schedule: Q01DX009 (ip), vehicle: saline) was 111 % of control and the T/C [1] was 100 % of control.

`Cc1ccc2c(c1)CN(Cc1ccccc1)CO2` was tested, and the T/C [4] was 93 % of control, the T/C [5] was 96 % of control and the T/C (dose: 400.0 mg/kg/injection, schedule: Q01DX009 (ip), vehicle: Klucel (hydroxypropylcellulose) (HPC)) was 96 % of control.

In the case of `Cc1ccc(NC(=O)Nc2ccccc2Cl)cc1Cl`, the T/C [3] is reported as 100 % of control and the T/C [4] is reported as 104 % of control.

For `O=C1O/C(=C\c2ccccc2)c2c(Br)c(Br)c(Br)c(Br)c21`, the T/C [6] was 112 % of control, the T/C [7] was 107 % of control and the T/C [8] was 112 % of control. For the same compound, the T/C [9] was 112 % of control.

In the case of `COc1cc2cc(c1Cl)N(C)C(=O)CC(OC(=O)C(C)C)C1(C)OC1C(C)C1CC(O)(NC(=O)O1)C(OC)/C=C/C=C(C)C2` (configuration not stated), the T/C (dose: 3.1 micrograms/kg/injection, schedule: Q01DX009 (ip), vehicle: saline + alcohol) is reported as 124 % of control, the T/C (dose: 6.25 micrograms/kg/injection, schedule: Q01DX009 (ip), vehicle: saline + alcohol) is reported as 169 % of control and the T/C (dose: 7.0 micrograms/kg/injection, schedule: Q01DX009 (ip), vehicle: saline + alcohol) is reported as 150 % of control. For the same compound, the T/C (dose: 12.5 micrograms/kg/injection, schedule: Q01DX009 (ip), vehicle: saline + alcohol) was 152 % of control and 168 % of control, the T/C (dose: 15.0 micrograms/kg/injection, schedule: Q01DX009 (ip), vehicle: saline + alcohol) was 165 % of control and the T/C (dose: 25.0 micrograms/kg/injection, schedule: Q01DX009 (ip), vehicle: saline + alcohol) was 157 % of control and 160 % of control and 165 % of control. The T/C (dose: 30.0 micrograms/kg/injection, schedule: Q01DX009 (ip), vehicle: saline + alcohol) was 178 % of control, the T/C (dose: 50.0 micrograms/kg/injection, schedule: Q01DX009 (ip), vehicle: saline + alcohol) was 164 % of control and 176 % of control and the T/C (dose: 60.0 micrograms/kg/injection, schedule: Q01DX009 (ip), vehicle: saline + alcohol) was 182 % of control.

For `CCc1cccc(CC)c1N1C(=O)C=CC1=O`, the T/C (dose: 0.2 mg/kg/injection, schedule: Q01DX009 (ip), vehicle: saline with Tween-80) was 97 % of control, the T/C (dose: 0.39 mg/kg/injection, schedule: Q01DX009 (ip), vehicle: saline with Tween-80) was 99 % of control and the T/C (dose: 0.78 mg/kg/injection, schedule: Q01DX009 (ip), vehicle: saline with Tween-80) was 92 % of control. The T/C (dose: 1.56 mg/kg/injection, schedule: Q01DX009 (ip), vehicle: saline with Tween-80) was 86 % of control and 90 % of control.

`CCN(CC)Cc1ncccc1O` was tested, and the T/C [3] was 107 % of control and the T/C [4] was 103 % of control.

In the case of `CC(C)CC(NC(=O)OCc1ccccc1)C(=O)NC(Cc1c[nH]c2ccccc12)C(=O)O` (configuration not stated), the T/C [6] is reported as 90 % of control, the T/C [7] is reported as 96 % of control and the T/C [8] is reported as 96 % of control. For the same compound, the T/C [9] was 98 % of control.

In the case of `C=C1C(=O)OC2CC3(C)CC(O)C(OC(C)=O)C(=C)C3CC12` (configuration not stated), the T/C (dose: 2.5 mg/kg/injection, schedule: Q01DX009 (ip), vehicle: saline) is reported as 109 % of control, the T/C (dose: 5.0 mg/kg/injection, schedule: Q01DX009 (ip), vehicle: saline) is reported as 104 % of control and the T/C (dose: 10.0 mg/kg/injection, schedule: Q01DX009 (ip), vehicle: saline) is reported as 106 % of control.

In the case of `O=C(NCCN1CC1)C(=O)NCCN1CC1`, the T/C (dose: 1.5 mg/kg/injection, schedule: Q01DX009 (ip), vehicle: saline with Tween-80) is reported as 153 % of control, the T/C (dose: 3.12 mg/kg/injection, schedule: Q04DX003 (ip), vehicle: saline with Tween-80) is reported as 178 % of control and the T/C (dose: 6.25 mg/kg/injection, schedule: Q04DX003 (ip), vehicle: saline with Tween-80) is reported as 168 % of control.

With `Cc1ccc2c(C)c3ccc4ccccc4c3c[n+]2c1` the T/C (dose: 10.0 mg/kg/injection, schedule: Q01DX009 (ip), vehicle: saline with Tween-80) was 104 % of control, the T/C (dose: 20.0 mg/kg/injection, schedule: Q01DX009 (ip), vehicle: saline with Tween-80) was 106 % of control and the T/C (dose: 40.0 mg/kg/injection, schedule: Q01DX009 (ip), vehicle: saline with Tween-80) was 100 % of control.

`CCCCNC(C)(C)C(SSSC(c1ccco1)C(C)(C)NCCCC)c1ccco1` (configuration not stated) was tested, and the T/C (dose: 3.13 mg/kg/injection, schedule: Q01DX009 (ip), vehicle: carboxymethylcellulose (CMC)) was 102 % of control, the T/C (dose: 6.25 mg/kg/injection, schedule: Q01DX009 (ip), vehicle: carboxymethylcellulose (CMC)) was 102 % of control and the T/C (dose: 12.5 mg/kg/injection, schedule: Q01DX009 (ip), vehicle: carboxymethylcellulose (CMC)) was 95 % of control. For the same compound, the T/C [2] was 91 % of control and the T/C (dose: 25.0 mg/kg/injection, schedule: Q01DX009 (ip), vehicle: carboxymethylcellulose (CMC)) was 86 % of control.

In the case of `BrCCCC1CCCCC1`, the T/C [3] is reported as 92 % of control, the T/C [4] is reported as 100 % of control and the T/C [5] is reported as 92 % of control.

For `C=CCc1cc2c(C)cc(=O)oc2c(C)c1OC(C)=O`, the T/C (dose: 100.0 mg/kg/injection, schedule: Q04DX003 (ip), vehicle: gum acacia) was 95 % of control, the T/C (dose: 200.0 mg/kg/injection, schedule: Q04DX003 (ip), vehicle: gum acacia) was 86 % of control and the T/C (dose: 400.0 mg/kg/injection, schedule: Q04DX003 (ip), vehicle: gum acacia) was 86 % of control.

For `Nc1nccnc1N`, the T/C [6] was 102 % of control and the T/C [7] was 88 % of control.

In the case of `Cc1cnnc2ccccc12`, the T/C [10] is reported as 91 % of control, the T/C [11] is reported as 98 % of control and the T/C [6] is reported as 95 % of control.

`CCCCN(CCCC)CCC(=O)c1ccc(OC)c2ccccc12` was tested, and the T/C [10] was 99 % of control and the T/C [11] was 88 % of control.
